Assay results: PubChem BioAssay (NCI)
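These data come from cells grown in 96-well plates and exposed to compound for 48 hours at five concentrations. TGI is the concentration that stops growth completely.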

How the values were obtained:
Experiment in all cases: growth of human tumour cells (NCI), 48 h
RXF-631 renal = tested on: RXF-631 renal
SNB-78 CNS = tested on: SNB-78 CNS
HOP-18 NSCLC = tested on: HOP-18 NSCLC

SMILES	TGI (RXF-631 renal) [µM]	TGI (SNB-78 CNS) [µM]	TGI (HOP-18 NSCLC) [µM]
O=S(=O)(O)C1=C2Sc3ccccc3N=C2c2ccccc2C1	29.5	34	25.2
c1nc(N2CC2)c2cnn(C3CCCCO3)c2n1 (stereo unspecified)	–	> 100	–
CCOC(=O)NC(=O)c1cn(CCNCCO)c(=O)[nH]c1=O	–	> 100	–
O=C(N/N=C/C=C/c1ccccc1)[C@H](O)[C@@H](O)C(=O)N/N=C/C=C/c1ccccc1	–	> 100	–
